{"source": "patent US7964406B2", "about": "“Means and methods for producing a stabilized cell of interest” (Academisch Medisch Centrum Bij De Universiteit Van Amsterdam, priority 2004, dated 2011)", "key": {"[1]": {"tested_on": "BCL-6", "assay": "BCL-6 expression in STAT5b-ER+ tonsil B cells after 4HT, RT-PCR and Western blot", "format": "cell-based, human", "conditions": "4HT added back for 8 hr after 10 days without", "protocol": "FIG. 21. Induction of BCL-6 expression by STAT5. (A) RT-PCR analysis of BCL-6 and HPRT in B cells transduced with CA-STAT5b-ER cultured in CD40L, IL-2 and IL-4 with 4HT. After incubation of the cells without 4HT for 10 days, 4HT was added back for 8 hr in the presence or absence of cyclohexamide (CH). This experiment was repeated 3 times with similar results. (B) Expression of BCL-6 protein in CA-STAT5b-ER-transduced B cells cultured in the presence of 4HT constantly or absence of 4HT for 12 days as determined by Western blot analysis using an anti-BCL-6 antibody. An antibody against actin was used as a protein loading control. Similar results were obtained in 3 independent experiments. (C) Dual luciferase reporter assay. Part of the promoter region of the BCL-6 gene (position −657/+471 bp) was linked to the firefly (P. pyralis) luciferase coding sequence and subcloned into the pGL3 vector. One potential STAT5 binding site in this promoter region (−548/−566 bp) was mutated from […] to […], and two different clones (BCL-6* and BCL-6**) were subcloned into the pGL3-firefly luciferase backbone. These pGL3 constructs were cotransfected with LZRS-CA-STAT5b and the Renilla luciferase containing vector into 293T cells. Both luciferase activities were measured sequentially from a single sample and relative luciferase units were calculated and corrected for the Renilla luciferase activity. […]"}, "[2]": {"tested_on": "human tonsillar B cells", "assay": "4HT-dependent growth of CA-STAT5b-ER transduced tonsillar B cells", "format": "cell-based", "conditions": "1 μM 4HT, CD40L, IL-2 and IL-4", "protocol": "FIG. 19. Characteristics of B cells transduced with CA-STAT5b-ER. (A) Tonsil B cells were cultured in CD40L, IL-2 and IL-4 and transduced with CA-STAT5b-ER-IRES-ΔNGFR (circles) or with control-IRES-ΔNGFR (squares). Both cultures were split, one part was cultured without (open symbols) and another with 1 μM 4HT (closed symbols). At the indicated time points after transduction percentages of transduced cells were determined by flow cytometric analysis after staining with an APC-conjugated antibody against NGFR. Absolute cell number counts were determined based on the percentages of ΔNGFR^+ cells. The experiment shown is representative for 5 independent experiments performed. (B) CA-STAT5b-ER-IRES-ΔNGFR transduced B cells 30 days after transduction were cultured for 7 days in the absence of 4HT. Equal numbers of cells were cultured then either in the presence (closed squares) or absence of 4HT (open squares) and absolute cell numbers were determined. Shown is a representative experiment out of 3. (C) Flow cytometric analysis of a representative culture of CA-STAT5b-ER-IRES-ΔNGFR transduced B cells cultured in CD40L, IL-2 and IL-4 in the presence of 4HT. Isotype control stainings are shown as thin histograms.\nWe then transduced human tonsillar B cells with the CA-STAT5b-ER-IRES-ΔNGFR construct and examined the effect of 4HT on the proliferative capacity of these B cells. […]"}}}
{"substance": "4-Hydroxy-Tamoxifen [4HT]", "values": [{"measurement": "expression of the BCL-6 transcript with 4HT versus without", "setting": "[1]", "value": "substantially higher"}, {"measurement": "growth selection of CA-STAT5b-ER expressing cells (ΔNGFR+)", "setting": "[2]", "value": "only occurred in the presence of 4HT"}]}
